According to the supplement of paper PMC8967900:

Experiments:
Experiment in all cases: selective drug sensitivity score (sDSS, relative to normal bone marrow) (sDSS (score)); higher = more potent and effective on the cell line relative to normal bone marrow cells
Settings in all cases: 72 h
MHH-CALL-4 = system: MHH-CALL-4
DND-41 = system: DND-41
NALM-6 = system: NALM-6
PF-382 = system: PF-382
KASUMI-2 = system: KASUMI-2
ALL-SIL = system: ALL-SIL
NALL-1 = system: NALL-1
MOLT-4 = system: MOLT-4
COG-LL-317 = system: COG-LL-317
COG-LL-332h = system: COG-LL-332h
JURKAT = system: JURKAT
MHH-CALL-2 = system: MHH-CALL-2
KASUMI-10 = system: KASUMI-10
PEER = system: PEER
LC4-1 = system: LC4-1
REH = system: REH
KASUMI-9 = system: KASUMI-9
KOPN-8 = system: KOPN-8
HAL-01 = system: HAL-01
MHH-CALL-3 = system: MHH-CALL-3
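Note: ALL cell lines in 384-well plates, five doses spanning 10,000-fold, each plate scaled between vehicle and 100 µmol/L benzalkonium chloride controls, sDSS an adapted area-under-curve metric.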

Structure (SMILES) | selective drug sensitivity score (MHH-CALL-4) | selective drug sensitivity score (DND-41) | selective drug sensitivity score (NALM-6) | selective drug sensitivity score (PF-382) | selective drug sensitivity score (KASUMI-2) | selective drug sensitivity score (ALL-SIL) | selective drug sensitivity score (NALL-1) | selective drug sensitivity score (MOLT-4) | selective drug sensitivity score (COG-LL-317) | selective drug sensitivity score (COG-LL-332h) | selective drug sensitivity score (JURKAT) | selective drug sensitivity score (MHH-CALL-2) | selective drug sensitivity score (KASUMI-10) | selective drug sensitivity score (PEER) | selective drug sensitivity score (LC4-1) | selective drug sensitivity score (REH) | selective drug sensitivity score (KASUMI-9) | selective drug sensitivity score (KOPN-8) | selective drug sensitivity score (HAL-01) | selective drug sensitivity score (MHH-CALL-3)
Nc1ncnc2c1nc(Cl)n2[C@@H]1O[C@H](CO)[C@@H](O)[C@H]1O [8-chloro-adenosine] (top concentration 50000 nM) | 1.6 | -3.9 | 1.1 | -1.9 | -1.8 | -3.4 | -5.3 | 3.3 | 6 | 0.9 | 0.3 | 2.4 | 7.5 | 0.5 | 2.9 | -0.6 | 2.4 | 5.9 | -1.5 | -1.6
COc1ccc(S(=O)(=O)Nc2cccnc2Nc2ccc(O)cc2)cc1 [ABT-751] (top concentration 10000 nM) | 3.52 | 6.12 | 10.7 | 9.42 | 4.72 | 17.6 | 10.8 | 11.1 | 11.4 | 11.1 | 15.6 | 12.6 | 8.12 | 15.5 | 11.7 | 15.4 | 10.4 | 14.6 | 11.7 | 3.72
CC1CCC(n2c3cnccc3c3cnc(Nc4ccc5c(n4)CCN(C(=O)CO)C5)nc32)CC1 (stereo not given) [AMG-925] (top concentration 1000 nM) | 3.54 | 6.14 | 4.74 | 5.44 | -0.66 | 2.04 | -0.16 | 2.34 | 1.44 | 4.34 | 4.54 | 4.94 | 9.54 | 5.54 | 9.24 | 3.44 | 8.24 | 10.9 | 3.44 | 4.94
O=C(NC1CCNCC1)c1n[nH]cc1NC(=O)c1c(Cl)cccc1Cl [AT7519] (top concentration 10000 nM) | -1.26 | -5.66 | -2.76 | -7.16 | -4.46 | -6.06 | -8.16 | -7.66 | -4.06 | -5.06 | -10.7 | -2.06 | -2.76 | -3.56 | -4.26 | -2.16 | -3.66 | -5.06 | -14.6 | -4.56
Cc1cc2c(C(C)C)c(O)c(O)c(C=O)c2c(O)c1-c1c(C)cc2c(C(C)C)c(O)c(O)c(C=O)c2c1O [AT-101] (top concentration 100000 nM) | 3.98 | 4.68 | 6.38 | 1.98 | -0.32 | 5.08 | 4.58 | 1.98 | 8.08 | 4.08 | 4.28 | 4.18 | 2.48 | 4.18 | 9.28 | 5.28 | 6.48 | 14.6 | 0.58 | -0.92
N[C@@H]1CCCN(c2c(/C=C3\SC(=O)NC3=O)cccc2-c2ccccc2)C1 [AZD1208] (top concentration 10000 nM) | 3.9 | -1.3 | -4.4 | -3.8 | -4.4 | 0.7 | 2.4 | -4.4 | -4.4 | -2.9 | -4.2 | 3.7 | -4.4 | -2.7 | -3.8 | 5.5 | -1.7 | 7.4 | 6.3 | -4.4
Cc1ncc(-c2ccnc(Nc3ccc(S(C)(=O)=O)cc3)n2)n1C(C)C [AZD-5438] (top concentration 10000 nM) | -6.86 | -2.06 | 1.44 | -2.46 | -0.86 | -3.86 | -6.86 | -5.46 | -0.56 | -0.16 | -1.06 | -1.06 | 6.04 | 3.04 | 0.44 | 1.54 | -0.26 | 5.24 | -5.96 | 6.64
CCN1CCN(Cc2ccc(Nc3ncc(F)c(-c4cc(F)c5nc(C)n(C(C)C)c5c4)n3)nc2)CC1 [Abemaciclib] (top concentration 2500 nM) | -1.76 | 0.34 | -4.46 | -1.26 | 1.74 | -2.66 | -5.96 | -1.96 | -2.36 | -1.66 | -6.16 | -3.96 | -1.06 | -1.96 | 2.94 | -0.06 | 5.44 | 20.2 | -3.06 | 1.24
Cn1ncc(Cl)c1-c1cc(C(=O)N[C@H](CN)Cc2cccc(F)c2)sc1Cl [Afuresertib] (top concentration 1000 nM) | 5.06 | -2.34 | 4.66 | 2.66 | 10.2 | 3.66 | -2.34 | 6.26 | 5.26 | 2.86 | 3.86 | 7.36 | -2.34 | -1.34 | 0.86 | 3.56 | 1.86 | 6.06 | 3.96 | -1.94
O=C(Nc1cc(Oc2cc(F)c(NC(=O)C3(C(=O)Nc4ccc(F)cc4)CC3)cc2F)ccn1)C1CC1 [Altiratinib] (top concentration 10000 nM) | 2.84 | 3.74 | 1.34 | 0.64 | -0.66 | 13.9 | 4.14 | 0.24 | -0.46 | 3.84 | 0.84 | 3.74 | 8.84 | 9.24 | -0.36 | 3.84 | -0.16 | 3.74 | 1.14 | -4.86
